Results taken from patent EP4759825A1, “PEPTIDE FRAGMENT AND USE THEREOF” (Toagosei Co., Ltd., priority 2023, dated 2026).
FAM = 5(6)-carboxyfluorescein

System: NSC-34 cells
Test: Evaluation of cell membrane permeability (flow cytometer, mean fluorescence intensity of cells cultured with the construct)
Type: cell-based, mouse
Conditions: mean fluorescence intensity (FL2 detector), 10 µM construct or FAM, 0.5% DMSO, 20 hours at 37°C, 5% CO2
Method: As the eukaryotic cells, NSC-34 cells (mouse motor neuron-like hybrid cell line) were used and the cell membrane permeability of the prepared construct was evaluated.
The NSC-34 cell was cultured in 10% fetal bovine serum (FBS)-containing Dulbecco's modified Eagle's medium (DMEM (Cat No. 044-29765, manufactured by FUJIFILM Wako Pure Chemical Corporation)), which is a culture medium.
The NSC-34 cell that adhered to a culture plate was cleaned with PBS and then, a 0.25%-trypsin/EDTA solution was added thereto, and incubation was performed for three minutes at 37°C. […]
Regarding the obtained cells (cell pellet), the cell membrane permeability was analyzed using a flow cytometer. […]
Using the aforementioned flow cytometer, gating based on forward scatter (FSC) and side scatter (SSC) was performed to set a gate about a cell group to be analyzed, and the fluorescence intensity was measured about the cell group in this gate. Note that the number of cells of the cell group to be analyzed was set to about 10000, and the analysis was performed. The fluorescence intensity was measured using a fluorescence detector FL2 of the flow cytometer (optimum detection wavelength around 543 nm) capable of detecting the fluorescence wavelength of FAM. […]

5(6)-carboxyfluorescein [Example 6]
MFI: 8.83

Ac-KKRTLRKSNRKKR-FAM (Ac-KKRTLRKSNRKKR-{FAM}) [Example 5]
MFI: 22.4
